Molecular target: T1, bovine cerebral TPK1 (Bos taurus, UniProt A0A3Q1MT31)
T1 construct: from tissue; host or cells: bovine brain (cerebrum)
Assay: Inhibitory activity against P-GS1 phosphorylation by bovine cerebral TPK1
Format: biochemical
Settings: 41.7 μM [γ-32P]ATP, 25° C., 2 hours, pH 6.5
Description: Inhibitory Activity of the Medicament of the Present Invention Against P-GS1 Phosphorylation by Bovine Cerebral TPK1
A mixture containing 100 mM MES-sodium hydroxide (pH 6.5), 1 mM magnesium acetate, 0.5 mM EGTA, 5 mM β-mercaptoethanol, 0.02% Tween 20, 10% glycerol, 12 μg/ml P-GS1, 41.7 μM [y-^32P] ATP (68 kBq/ml), bovine cerebral TPK1 and a compound shown in Table (a final mixture contained 1.7% DMSO deriving from a solution of a test compound prepared in the presence of 10% DMSO) was used as a reaction system. The phosphorylation was started by adding ATP, and the reaction was conducted at 25° C. for 2 hours, and then stopped by adding 21% perchloric acid on ice cooling. The reaction mixture was centrifuged at 12,000 rpm for 5 minutes and adsorbed on P81 paper (Whatmann), and then the paper was washed four times with 75 mM phosphoric acid, three times with water and once with acetone. The paper was dried, and the residual radioactivity was measured using a liquid scintillation counter. […] PHF formation, and that the medicaments of the present invention are effective for preventive and/or therapeutic treatment of Alzheimer disease and the above-mentioned diseases.

T1 sequence (A0A3Q1MT31 1-419): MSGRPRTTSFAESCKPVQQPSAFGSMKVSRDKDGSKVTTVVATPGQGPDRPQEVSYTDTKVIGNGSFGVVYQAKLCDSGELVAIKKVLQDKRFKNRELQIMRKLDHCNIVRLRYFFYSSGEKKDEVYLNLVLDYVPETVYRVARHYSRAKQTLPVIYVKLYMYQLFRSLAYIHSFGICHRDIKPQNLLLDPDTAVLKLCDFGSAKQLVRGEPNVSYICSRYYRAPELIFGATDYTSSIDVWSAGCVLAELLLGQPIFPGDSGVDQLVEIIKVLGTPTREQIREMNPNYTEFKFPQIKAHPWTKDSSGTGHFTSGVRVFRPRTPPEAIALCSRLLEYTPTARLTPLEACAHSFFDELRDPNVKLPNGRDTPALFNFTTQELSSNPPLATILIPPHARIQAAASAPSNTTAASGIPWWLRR

| Compound | IC50 [nM] |
| --- | --- |
| Cn1c(N2CCOC(c3cc4cc(F)ccc4n3C)C2)nc(-c2ccncn2)cc1=O (stereo not shown) [Compound B242] | 6.9 |
| Cn1c(N2CCO[C@@H](c3cccc4c3OCC4)C2)nc(-c2ccncn2)cc1=O [Compound B243] | 4.2 |
| COc1cc(F)cc(OC)c1[C@H]1CN(c2nc(-c3ccncn3)cc(=O)n2C)CCO1 [Compound B244] | 0.17 |
| COc1cc(F)cc(OC)c1[C@@H]1CN(c2nc(-c3ccncn3)cc(=O)n2C)CCO1 [Compound B245] | 1.3 |
| COc1cc(C)c(C)cc1C1CN(c2nc(-c3ccncn3)cc(=O)n2C)CCO1 (stereo not shown) [Compound B246] | 1.1 |
| Cn1c(N2CCOC(c3ccc(F)cc3OCC3CC3)C2)nc(-c2ccncn2)cc1=O (stereo not shown) [Compound B247] | 15 |
| COc1ccc(C#N)cc1C1CN(c2nc(-c3ccncn3)cc(=O)n2C)CCO1 (stereo not shown) [Compound B248] | 0.78 |
| COc1cc(Cl)ccc1C1CN(c2nc(-c3ccncn3)cc(=O)n2C)CCO1 (stereo not shown) [Compound B249] | 0.83 |
| COc1cc(F)cc(F)c1C1CN(c2nc(-c3ccncn3)cc(=O)n2C)CCO1 (stereo not shown) [Compound B250] | 0.56 |
| Cn1c(N2CCOC(c3noc4ccccc34)C2)nc(-c2ccncn2)cc1=O (stereo not shown) [Compound B251] | 2.4 |
| Cn1c(N2CCO[C@@H](c3noc4ccccc34)C2)nc(-c2ccncn2)cc1=O [Compound B252] | 1 |
| COc1cc(C#N)ccc1C1CN(c2nc(-c3ccncn3)cc(=O)n2C)CCO1 (stereo not shown) [Compound B253] | 0.7 |
| COc1cc(F)cc(F)c1[C@H]1CN(c2nc(-c3ccncn3)cc(=O)n2C)CCO1 [Compound B254] | 0.24 |
| COc1ccc(-c2ccc(F)cc2)cc1C1CN(c2nc(-c3ccncn3)cc(=O)n2C)CCO1 (stereo not shown) [Compound B255] | 4.6 |
| COc1ccc(-c2cccnc2)cc1C1CN(c2nc(-c3ccncn3)cc(=O)n2C)CCO1 (stereo not shown) [Compound B256] | 0.64 |
| Cn1c(N2CCOC(c3ccc(F)cc3O)C2)nc(-c2ccncn2)cc1=O (stereo not shown) [Compound B257] | 7.4 |
| COc1cc(-c2ccccc2)ccc1C1CN(c2nc(-c3ccncn3)cc(=O)n2C)CCO1 (stereo not shown) [Compound B258] | 1.4 |
| COc1ccc(N2CCCC2)cc1C1CN(c2nc(-c3ccncn3)cc(=O)n2C)CCO1 (stereo not shown) [Compound B259] | 1.2 |
| COc1cc(N2CCCC2)ccc1C1CN(c2nc(-c3ccncn3)cc(=O)n2C)CCO1 (stereo not shown) [Compound B260] | 0.77 |
| COc1ccc(-c2ccccc2F)cc1C1CN(c2nc(-c3ccncn3)cc(=O)n2C)CCO1 (stereo not shown) [Compound B261] | 1.4 |
| COc1cccc(-c2ccc(OC)c(C3CN(c4nc(-c5ccncn5)cc(=O)n4C)CCO3)c2)c1 (stereo not shown) [Compound B262] | 1.3 |
| COc1ccc(-c2ccc(Cl)cc2Cl)cc1C1CN(c2nc(-c3ccncn3)cc(=O)n2C)CCO1 (stereo not shown) [Compound B263] | 13 |

| Compound | IC50 [nM] |
| --- | --- |
| COc1ccc(CN2CCCC2)cc1C1CN(c2nc(-c3ccncn3)cc(=O)n2C)CCO1 (stereo not shown) [Compound B264] | 0.6 |
| COc1ccc(-c2cccc(F)c2)cc1C1CN(c2nc(-c3ccncn3)cc(=O)n2C)CCO1 (stereo not shown) [Compound B266] | 1.6 |
| COc1ccccc1-c1ccc(OC)c(C2CN(c3nc(-c4ccncn4)cc(=O)n3C)CCO2)c1 (stereo not shown) [Compound B267] | 1.2 |
| COc1ccc(-c2ccc(OC)c(C3CN(c4nc(-c5ccncn5)cc(=O)n4C)CCO3)c2)cc1 (stereo not shown) [Compound B268] | 1.7 |
| COc1ccc(Nc2ccccc2)cc1C1CN(c2nc(-c3ccncn3)cc(=O)n2C)CCO1 (stereo not shown) [Compound B269] | 1.1 |
| Cn1c(N2CCOC(c3ccc(F)cc3OCc3ccccc3)C2)nc(-c2ccncn2)cc1=O (stereo not shown) [Compound B270] | 27 |
| Cn1c(N2CCOC(c3cc4ccccc4o3)C2)nc(-c2ccncn2)cc1=O (stereo not shown) [Compound B271] | 4.2 |
| Cn1c(N2CCO[C@@H](c3cc4ccccc4o3)C2)nc(-c2ccncn2)cc1=O [Compound B272] | 7.1 |
| COc1cccc2cc(C3CN(c4nc(-c5ccncn5)cc(=O)n4C)CCO3)oc12 (stereo not shown) [Compound B273] | 4.3 |
| COc1ccc(-c2cccc(CN3CCCC3)c2)cc1C1CN(c2nc(-c3ccncn3)cc(=O)n2C)CCO1 (stereo not shown) [Compound B274] | 0.57 |
| COc1cc(-c2ccccc2F)ccc1C1CN(c2nc(-c3ccncn3)cc(=O)n2C)CCO1 (stereo not shown) [Compound B277] | 1.4 |
| COc1cc(-c2cccc(F)c2)ccc1C1CN(c2nc(-c3ccncn3)cc(=O)n2C)CCO1 (stereo not shown) [Compound B278] | 1.1 |
| COc1cc(-c2ccc(F)cc2)ccc1C1CN(c2nc(-c3ccncn3)cc(=O)n2C)CCO1 (stereo not shown) [Compound B279] | 1.2 |
| COc1ccc(-c2ccccn2)cc1C1CN(c2nc(-c3ccncn3)cc(=O)n2C)CCO1 (stereo not shown) [Compound B280] | 0.6 |
| COc1cccc(-c2ccc(OC)c(C3CN(c4nc(-c5ccncn5)cc(=O)n4C)CCO3)c2)n1 (stereo not shown) [Compound B281] | 0.84 |
| COc1ncc(-c2ccc(OC)c(C3CN(c4nc(-c5ccncn5)cc(=O)n4C)CCO3)c2)c(OC)n1 (stereo not shown) [Compound B283] | 1.9 |
| Cn1c(N2CCOC3(CCOc4ccccc43)C2)nc(-c2ccncn2)cc1=O (stereo not shown) [Compound B284] | 11 |
| Cn1c(N2CCOC3(CCCOc4ccccc43)C2)nc(-c2ccncn2)cc1=O (stereo not shown) [Compound B285] | 26 |
| Cn1c(N2CCCC(C(=O)c3ccccc3)C2)nc(-c2ccncn2)cc1=O (stereo not shown) [Compound C401] | 1.1 |
| Cn1c(N2CCOC(C(=O)c3ccccc3)C2)nc(-c2ccncn2)cc1=O (stereo not shown) [Compound C501] | 0.56 |
| Cn1c(N2CCC(C(=O)c3ccc(Cl)cc3)CC2)nc(-c2ccncn2)cc1=O [Compound D034, 2-[4-(4-Chlorobenzoyl)piperidin-1-yl]-3-methyl-6-pyrimidin-4-yl-3H-pyrimidin-4-one] | 1.1 |

From US7572793B2, “3-Substituted-4-pyrimidone derivatives” (Mitsubishi Tanabe Pharma Corporation, priority 2001, dated 2009)
